# From article PMC10557740 (bioRxiv, 2023)
# Experiments:
# [1] = molecular target: 5-hydroxytryptamine 2A receptor (HTR2A) (Mus musculus, UniProt P35363); assay type: binding
# [2] = molecular target: HTR2A-A242S-EGFP-CT (humanized 5-hydroxytryptamine 2A receptor) (Mus musculus, UniProt P35363, A242S); assay: radioligand saturation binding on cortical crude membranes
# Chain of HTR2A-A242S-EGFP-CT (humanized 5-hydroxytryptamine 2A receptor) (P35363 1-452 A242S, other chains not shown): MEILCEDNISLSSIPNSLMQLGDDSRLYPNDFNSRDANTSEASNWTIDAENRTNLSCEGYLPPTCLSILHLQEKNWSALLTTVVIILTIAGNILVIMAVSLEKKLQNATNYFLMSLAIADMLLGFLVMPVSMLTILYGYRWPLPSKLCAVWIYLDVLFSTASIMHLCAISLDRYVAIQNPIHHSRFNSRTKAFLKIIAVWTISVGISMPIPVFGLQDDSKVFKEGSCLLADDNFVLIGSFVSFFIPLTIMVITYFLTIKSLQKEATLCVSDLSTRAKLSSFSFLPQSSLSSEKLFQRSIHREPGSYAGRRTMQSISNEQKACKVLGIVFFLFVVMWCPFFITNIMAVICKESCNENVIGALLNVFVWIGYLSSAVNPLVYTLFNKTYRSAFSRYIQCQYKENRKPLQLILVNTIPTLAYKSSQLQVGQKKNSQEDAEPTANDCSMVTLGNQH
# Chain of 5-hydroxytryptamine 2A receptor (HTR2A) (P35363 whole entry): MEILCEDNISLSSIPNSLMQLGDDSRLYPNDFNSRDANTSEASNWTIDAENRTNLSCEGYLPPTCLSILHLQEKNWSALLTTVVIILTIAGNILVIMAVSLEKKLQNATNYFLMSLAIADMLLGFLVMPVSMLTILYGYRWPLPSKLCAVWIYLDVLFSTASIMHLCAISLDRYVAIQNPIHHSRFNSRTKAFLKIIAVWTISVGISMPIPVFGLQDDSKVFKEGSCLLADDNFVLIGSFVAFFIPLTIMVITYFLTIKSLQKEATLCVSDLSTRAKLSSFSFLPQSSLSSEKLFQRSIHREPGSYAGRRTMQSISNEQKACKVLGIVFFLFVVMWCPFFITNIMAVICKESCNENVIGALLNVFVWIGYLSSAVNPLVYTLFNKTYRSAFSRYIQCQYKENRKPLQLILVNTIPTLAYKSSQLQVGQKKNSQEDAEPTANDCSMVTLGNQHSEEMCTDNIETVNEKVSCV
compound,measurement,setting,value
O=C(c1ccc(F)cc1)C1CCN(CCn2c(=O)[nH]c3ccccc3c2=O)CC1 [[3H]-ketanserin],Kd,[1],1.09 ± 0.324 nM
same,Kd,[2],2.38 ± 1.48 nM
